Test results published in patent US20220143003A1, “COMPOSITIONS AND METHODS TO TREAT NON-ALCOHOLIC FATTY LIVER DISEASES (NAFLD)” (Coherus Biosciences, Inc., priority 2018, published 2022).

Test system: DIO-NASH mice
Assay: Plasma urea at termination
Format: in vivo, male C57BL/6JRj mice
Conditions: termination; group mean; CHS-131 High dose (alone or combined)
Method: For plasma biochemistry, tail blood was drawn directly through the capillary of a Microvette/Vacuette of the right dimension and anticoagulant and mixed by inversion 5 times. Blood was placed at 4° C. until centrifugation at 3000×g for 10 minutes at 4° C. The plasma supernatants were transferred to new tubes and immediately frozen on dry ice and stored at −80° C. until analysis.
Mouse insulin was measured in single determinations using the MSD platform (Meso Scale Diagnostics).
Plasma urea at termination (mmol/L). Values expressed as mean of n=12-14+SEM.

## CCCCCCCCCCCCCCCC(=O)N[C@@H](CCC(=O)NCCCC[C@H](NC(=O)[C@H](C)NC(=O)[C@H](C)NC(=O)[C@H](CCC(N)=O)NC(=O)CNC(=O)[C@H](CCC(=O)O)NC(=O)[C@H](CC(C)C)NC(=O)[C@H](Cc1ccc(O)cc1)NC(=O)[C@H](CO)NC(=O)[C@H](CO)NC(=O)[C@@H](NC(=O)[C@H](CC(=O)O)NC(=O)[C@H](CO)NC(=O)[C@@H](NC(=O)[C@H](Cc1ccccc1)NC(=O)[C@@H](NC(=O)CNC(=O)[C@H](CCC(=O)O)NC(=O)[C@H](C)NC(=O)[C@@H](N)Cc1cnc[nH]1)[C@@H](C)O)[C@@H](C)O)C(C)C)C(=O)N[C@@H](CCC(=O)O)C(=O)N[C@@H](Cc1ccccc1)C(=O)N[C@H](C(=O)N[C@@H](C)C(=O)N[C@@H](Cc1c[nH]c2ccccc12)C(=O)N[C@@H](CC(C)C)C(=O)N[C@H](C(=O)N[C@@H](CCCNC(=N)N)C(=O)NCC(=O)N[C@@H](CCCNC(=N)N)C(=O)NCC(=O)O)C(C)C)[C@@H](C)CC)C(=O)O [Liraglutide, reference compound]
  Plasma urea at termination: 7.86 mmol/L
